In US7754856B2, “Human sodium-dependent bile acid transporter proteins” (Takeda Pharmaceutical Company Limited, priority 2002, dated 2010):

Molecular target: T1, human TCH230 (Homo sapiens, UniProt Q3KNW5)
T1 construct: expressed in transfected cells
T1 sequence (Q3KNW5 1-377): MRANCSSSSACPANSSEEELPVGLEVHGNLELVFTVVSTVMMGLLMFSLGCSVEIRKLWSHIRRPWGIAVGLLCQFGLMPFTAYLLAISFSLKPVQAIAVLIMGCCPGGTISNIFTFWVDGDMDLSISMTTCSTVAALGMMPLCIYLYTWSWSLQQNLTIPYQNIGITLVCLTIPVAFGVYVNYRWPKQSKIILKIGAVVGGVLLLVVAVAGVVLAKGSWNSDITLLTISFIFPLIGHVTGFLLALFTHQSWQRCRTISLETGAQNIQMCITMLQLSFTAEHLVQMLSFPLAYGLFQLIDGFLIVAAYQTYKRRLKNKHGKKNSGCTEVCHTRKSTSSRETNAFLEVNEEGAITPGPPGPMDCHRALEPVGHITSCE
Assay: Incorporation of labeled steroid sulfates into human TCH230-expressing CHO cell strain
Type: cell-based
Conditions: for incorporation into human TCH230 expressing CHO cells (radioactivity): CHO clone No. 19-6, in the presence of 140 mM NaCl (NaCl buffer vs NMDG buffer, vs Mock cells), 37° C., 1 hour, values only in FIG. 17/18; for substrate of the novel sodium-dependent bile acid transporter protein: summary statement in disclosure
Description: Incorporation of [6,7-^3H(N)]-estrone sulfate and [1,2,6,7-^3H(N)]-dehydroepiandrosterone sulfate (hereinafter also referred to as [1,2,6,7-^3H(N)]-DHEA-S) into the human TCH230 (SEQ ID NO:1)-expressing CHO cell strain clone No. 19-6 obtained in Example 19 was measured.
The human TCH230 (SEQ ID NO:1) expressing CHO cell strain clone No. 19-6 was inoculated at a density of 4×10^4 cells/well in a 96 well plate, and cultured at 37° C. for 24 hours in MEMα medium (Invitrogen, Inc.) containing 5 mM sodium butyrate. The medium was removed, and the cells were washed 3 times with 150 μL NMDG buffer (140 mM N-methyl-D(−)-glucamine, 5.4 mM KCl, 0.34 mM Na2HPO4, 0.44 mM KH2PO4, 1.26 mM CaCl2, 0.41 mM MgSO4, 0.49 mM MgCl2, 5.55 mM glucose, pH 7.4-7.6), and incubated in 150 μL NMDG buffer at 37° C. for 1 hour. The buffer was replaced with 90 μL NaCl buffer (140 mM NaCl, 5.4 mM KCl, 0.34 mM Na2HPO4, 0.44 mM KH2PO4, 1.26 mM CaCl2, 0.41 mM MgSO4, 0.49 mM MgCl2, 5.55 mM glucose, pH 7.4-7.6) or 90 μL NMDG buffer, followed by adding 10 μL of 2.5 μM estrone sulfate, ammonium salt, [6,7-^3H(N)]— or 1.37 μM dehydroepiandrosterone sulfate, sodium salt, [1,2,6,7-^3H(N)]— (all of which are available from Perkin-Elmer Life Science). The cells were incubated at 37° C. for 1 hour, and the buffer was removed, then washed 3 times with 200 μL PBS (Takara Bio) and lysed with 10 μL of 0.1N NaOH. 100 μL SuperMix scintillator (Perkin-Elmer Life Science) was added thereto and stirred, and the amount of [6,7-^3H(N)]-estrone sulfate or [1,2,6,7-^3H(N)]-DHEA-S incorporated into the cells was measured in terms of radioactivity. This measurement was carried out with 1450 MICROBETA PLUS LIQUID SCINTILLATION COUNTER (Perkin-Elmer Life Science). CHO dhfr− cells into which vector pcDNA3.1(+) had been introduced (also referred to hereinafter as Mock) was also subjected to the same procedure and measured for radioactivity.

Substance	incorporation into human TCH230 expressing CHO cells (radioactivity)	substrate of the novel sodium-dependent bile acid transporter protein
[1,2,6,7-^3H(N)]-dehydroepiandrosterone sulfate [[1,2,6,7-^3H(N)]-DHEA-S]	incorporate	substrate
[6,7-^3H(N)]-estrone sulfate	incorporate	substrate
